In patent US10954221B2, “GLP-1R agonists and uses thereof” (QILU REGOR THERAPEUTICS INC., priority 2019, dated 2021):

Columns and labels:
GLP1R [1] = molecular target: T1, GLP1R (Homo sapiens, UniProt P43220); set-up: Emax: dose or concentration left out as unconfirmed; settings: CHO-K1, […], read-out: β-arrestin recruitment Bmax (%)
Target sequence in this assay (P43220 24-463): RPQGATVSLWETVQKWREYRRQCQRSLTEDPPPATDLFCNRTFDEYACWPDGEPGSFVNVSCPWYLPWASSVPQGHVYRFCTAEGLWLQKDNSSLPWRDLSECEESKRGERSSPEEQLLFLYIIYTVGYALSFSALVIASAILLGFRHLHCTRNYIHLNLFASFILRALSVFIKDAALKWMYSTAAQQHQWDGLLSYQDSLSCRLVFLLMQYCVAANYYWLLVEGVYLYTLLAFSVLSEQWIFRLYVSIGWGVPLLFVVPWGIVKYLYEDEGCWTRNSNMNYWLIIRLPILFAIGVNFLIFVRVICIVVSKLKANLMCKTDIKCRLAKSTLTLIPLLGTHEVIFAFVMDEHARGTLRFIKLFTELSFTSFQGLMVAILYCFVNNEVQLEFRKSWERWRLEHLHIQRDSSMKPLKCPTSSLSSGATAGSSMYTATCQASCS
Target sequence in this assay (P32121 whole entry partner): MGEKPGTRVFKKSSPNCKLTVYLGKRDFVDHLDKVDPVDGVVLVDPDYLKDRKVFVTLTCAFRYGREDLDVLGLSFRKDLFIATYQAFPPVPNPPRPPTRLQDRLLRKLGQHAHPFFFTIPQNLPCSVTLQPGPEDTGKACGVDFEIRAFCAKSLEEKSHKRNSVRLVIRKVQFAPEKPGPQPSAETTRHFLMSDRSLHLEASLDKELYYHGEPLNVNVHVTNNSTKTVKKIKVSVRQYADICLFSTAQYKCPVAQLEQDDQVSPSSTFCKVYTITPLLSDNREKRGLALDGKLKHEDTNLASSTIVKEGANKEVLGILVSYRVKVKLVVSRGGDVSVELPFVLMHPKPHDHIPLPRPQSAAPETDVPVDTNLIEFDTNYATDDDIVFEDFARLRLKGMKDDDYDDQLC
Experimental: Frozen cells were quickly thawed and 10 mL of cell plating medium (provided by the kit) was added to thawed cells. Cells were stored in a 37° C. incubator under 5% CO2 and kept for approximately 48 hours until ready to run the assay.
Reference and test compounds were dissolved in 100% DMSO. […] 5 μL of this solution was added to 20 μL cell medium in assay plate for a final top concentration of 10 μM. Plates were then incubated at 37° C. under 5% CO2 for 90 min.
Following 90 min incubation, detection reagents were made up by combining 1 part Galacton Star Substrate with 5 parts Emerald II™ Solution, and 19 parts of PathHunter Cell Assay Buffer, respectively. 12.5 μl detection reagent was added to each well. The plates were then incubated at room temperature in dark for 60 min. Plates were then read on Envision for 0.1 sec/well.
Cells were plated at a density of 1000 or 2000 cells/20 μL/well. Frozen cells were quickly thawed and added to 10 mL of cell plating medium. Cells were stored in a 37 degree incubator under 5% CO2 and left for approximately 48 hours until ready to run the assay
Prepare 10× concentration of an agonist in serum free DMEM, and add all solutions into the compound plate. 2.5 μL of this solution was added to 20 μL cell medium in assay plate for a final top concentration of 10 μM. Plates were incubated at 37° C. under 5% CO2 for 30 min. An additional 2.5 μL of Buffer was added to the entire plate for agonist mode and incubated at 37° C. for another 90 min.
Following 90 min incubation, detection reagents were made up as described. 12.5 μL was added to all wells. The plates were then incubated at room temperature in dark for 60 min. Plates were then read on Envision for 0.1 sec/well.
Data analysis: GraphPad Prism 6 was used for establishment of progression curve. EC50s or IC50s were determined by 4-parameter logistic dose response equation.

GLP1R [2] = molecular target: T1, GLP1R; test: cAMP assay in CHO cells stably expressing hGLP-1R; format: cell-based; set-up: expressed in transfected cells; host or cells: CHO cells stably transfected; settings: CHO cells stably expressing hGLP-1R (Table 2), read-out: CHO cAMP stable EC50
Experimental: GLP-1R-mediated agonist activity was determined with a cell-based functional assay utilizing an HTRF (Homogeneous Time-Resolved Fluorescence) cAMP detection kit (cAMP Dynamic 2 Assay Kit; CisBio cat #62AM4PEC) that measures cAMP levels in the cell. The method is a competitive immunoassay between native cAMP produced by the cells and exogenous cAMP labeled with the dye d2. The tracer binding is visualized by a mAb anti-cAMP labeled with Cryptate. The specific signal (i.e., energy transfer) is inversely proportional to the concentration of cAMP in either standard or experimental sample.
Following the 30 minute incubation, 5 μL of labeled d2 cAMP and 5 μL of anti-cAMP antibody (both diluted 1:20 in cell lysis buffer; as described in the manufacturer's assay protocol) were added to each well of the assay plate. […] Raw data were converted to nM cAMP by interpolation from a cAMP standard curve (as described in the manufacturer's assay protocol) and the percent effect was determined relative to a saturating concentration of the full agonist GLP-17-37 (10 nM) included on each plate. EC50 determinations were made from agonist dose-response curves analyzed with a curve fitting program using a 4-parameter logistic dose response equation. […]
Target sequence in this assay (P43220 24-463): as the sequence (P43220 24-463) above

GLP1R [3] = molecular target: T1, GLP1R; test: GLP1R cAMP assay (HTRF), HEK293/GLP-1R/CRE/Luc, Clone 4
Target sequence in this assay (P43220 24-463): as above

GLP1R [4] = molecular target: T1, GLP1R; test: β-Arrestin-mediated GLP1R internalization assay (PathHunter U2OS cells); format: cell-based; set-up: host or cells: PathHunter engineered U2OS cells; settings: averaged Bmax where applicable, Percentage of Control GLP-1 (7-37), top 10 μM, 180 min
In short: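 PathHunter U2OS cells co-express untagged GLP1R, EA-tagged β-arrestin and an endosome-localized PK tag, so internalization gives β-galactosidase complementation. Agonist (top final concentration 10 μM) applied for 180 min at 37 °C, then chemiluminescence read after 60 min detection. EC50 from 4-parameter logistic fits.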
Target sequence in this assay (P43220 24-463): as above
Target sequence in this assay (P32121 whole entry partner): as the sequence (P32121 whole entry partner) above

Row | Emax (GLP1R [1]) | EC50 (GLP1R [2]) | EC50 (GLP1R [3]) | β-arrestin internalization Bmax (POC) (GLP1R [4]) | SMILES
1 | 42.2 ± 2.68% | < 15 nM | < 15 nM | 29.6 POC | N#Cc1ccc(COc2cccc(-c3cc(F)c(Cc4nc5ccc(C(=O)O)nc5n4C[C@@H]4CCO4)cc3F)n2)c(F)c1 [Compound 292, (S)-2-(4-(6-((4-cyano-2-fluorobenzyl)oxy)pyridin-2-yl)-2,5-difluorobenzyl)-3-(oxetan-2-ylmethyl)-3H-imidazo[4,5-b]pyridine-5-carboxylic acid]
2 | 39.2 ± 4.75% | < 15 nM | < 15 nM | 28.4 POC | O=C(O)c1ccc2nc(Cc3cc(F)c(-c4cccc(OCc5ccc(-n6ccnc6)cc5)n4)cc3F)n(C[C@@H]3CCO3)c2n1 [Compound 303, (S)-2-(4-(6-(4-(1H-imidazol-1-yl)benzyloxy)pyridin-2-yl)-2,5-difluorobenzyl)-3-(oxetan-2-ylmethyl)-3H-imidazo[4,5-b]pyridine-5-carboxylic acid]
3 | 38.8 ± 7.09% | < 15 nM | < 15 nM | 26.7 ± 4.53 POC | O=C(O)c1ccc2nc(Cc3ccc(-c4nccc(OCc5ccc(Cl)cc5F)n4)cc3F)n(C[C@@H]3CCO3)c2c1F [Compound 311, (S)-2-(4-(4-((4-chloro-2-fluorobenzyl)oxy)pyrimidin-2-yl)-2-fluorobenzyl)-7-fluoro-1-(oxetan-2-ylmethyl)-1H-benzo[d]imidazole-6-carboxylic acid]
4 | 33.4 ± 2.13% | < 15 nM | < 15 nM | 45.2 POC | N#Cc1ccc(COc2nc(-c3ccc(Cc4nc5ccc(C(=O)O)c(F)c5n4C[C@@H]4CCO4)c(F)c3)ncc2F)c(F)c1 [Compound 312, (S)-2-(4-(4-((4-cyano-2-fluorobenzyl)oxy)-5-fluoropyrimidin-2-yl)-2-fluorobenzyl)-7-fluoro-1-(oxetan-2-ylmethyl)-1H-benzo[d]imidazole-6-carboxylic acid]
